In patent publication US9981940B2, “Aryl sulfide derivatives and aryl sulfoxide derivatives as acaricides and insecticides” (BAYER CROPSCIENCE AKTIENGESELLSCHAFT, priority 2013, dated 2018):

What was measured:
Tetranychus urticae = Tetranychus urticae spray test, OP-resistant (TETRUR); format: in vivo; settings: after 6 days; for pest or weed control at 500 g/ha: Tetranychus urticae, 144 h, read-out: efficacy
Summary of the method: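 Mortality as % efficacy (0% = no mites killed) read 6 days after spraying. Formulation: active ingredient in acetone/dimethylformamide plus emulsifier, diluted with emulsifier-containing water, applied to Phaseolus vulgaris leaf discs carrying every life stage of OP-resistant spider mites.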

[1] = log P by HPLC (OECD Guideline 117), method [a] acidic range; format: physicochemical; settings: for logP[a]: HPLC, method [a] acidic range; for chromatographic logP: reversed-phase C18 HPLC column, acidic range
Procedure: (§1) The log P values were determined analogously to OECD Guideline 117 (EC Directive 92/69/EEC) by HPLC (high-performance liquid chromatography) using reversed-phase columns (C 18), by the following methods:
[a] The LC-MS determination in the acidic range is effected at pH 2.7 with 0.1% aqueous formic acid and acetonitrile (contains 0.1% formic acid) as eluents; linear gradient from 10% acetonitrile to 95% acetonitrile.

[2] = log P by HPLC (OECD Guideline 117), method [b] neutral range; format: physicochemical; settings: HPLC; for logP[b]: method [b] neutral range; for chromatographic logP: reversed-phase C18 HPLC column, neutral range, pH 7.8
Procedure: as §1
[b] The LC-MS determination in the neutral range is effected at pH 7.8 with 0.001 molar aqueous ammonium hydrogencarbonate solution and acetonitrile as eluents; linear gradient from 10% acetonitrile to 95% acetonitrile.

[3] = pH 2.7, HPLC method [a], read-out: logP[a]
[4] = pH 2.7, HPLC, pH 2.7, read-out: log P[a]

## CCCCOc1nn(-c2cc(SCC(F)(F)F)c(C)cc2F)c(=O)n1C [Example 128]
Tetranychus urticae; application rate of 500 g/ha
  efficacy: 90%
[1]
  logP[a]: 4.11
[2]
  logP[b]: 3.95

## CCC[S+]([O-])c1nn(-c2cc([S+]([O-])CC(F)(F)F)c(C)cc2F)c(=O)n1C1CC1 (centres unmarked) [Example 237]
Tetranychus urticae; application rate of 500 g/ha
  efficacy: 100%
[1]
  logP[a]: 2.14
[2]
  logP[b]: 2.08

## COCc1nn(-c2cc([S+]([O-])CC(F)(F)F)c(C)cc2F)c(=O)o1 (racemic) [Example 453]
Tetranychus urticae; application rate of 500 g/ha
  efficacy: 100%
[1]
  logP[a]: 2.08
[2]
  logP[b]: 2.10

## CCOCc1nn(-c2cc(SCC(F)(F)F)c(C)cc2F)c(=O)n1C1CC1 [Example 73]
Tetranychus urticae; application rate of 500 g/ha
  efficacy: 90%
[1]
  logP[a]: 3.33
[2]
  logP[b]: 3.27

## CCC[S+]([O-])c1nn(-c2cc([S+]([O-])CC(F)(F)F)c(C)cc2F)c(=O)n1CC (centres unmarked) [Example 251]
Tetranychus urticae; application rate of 500 g/ha
  efficacy: 100%
[1]
  logP[a]: 2.22
[2]
  logP[b]: 2.18

## Cc1cc(F)c(-n2nc(Br)n(Cc3ccccc3)c2=O)cc1SCC(F)(F)F [Example 440]
Tetranychus urticae; application rate of 500 g/ha
  efficacy: 100%
[1]
  logP[a]: 4.18
[2]
  logP[b]: 4.13

## COCCOC1=CC(=O)N(c2cc([S+]([O-])CC(F)(F)F)c(C)cc2F)C1 (centres unmarked) [Example 335]
Tetranychus urticae; application rate of 500 g/ha
  efficacy: 90%
[1]
  logP[a]: 1.92
[2]
  logP[b]: 1.86

## Cc1cc(F)c(-n2ncn(C(C)C)c2=O)cc1[S+]([O-])CC(F)(F)F (centres unmarked) [Example 6, 2-{2-Fluoro-4-methyl-5-[(2,2,2-trifluoroethyl)sulphinyl]phenyl}-4-isopropyl-2,4-dihydro-3H-1,2,4-triazol-3-one]
Tetranychus urticae; application rate of 500 g/ha
  pest or weed control at 500 g/ha: 80%
[1]; [3]
  chromatographic logP: 1.88
[1]; [4]
  chromatographic logP: 1.88
[2]
  chromatographic logP: 2.02

## COC1=CC(=O)N(c2cc([S+]([O-])CC(F)(F)F)c(C)cc2C)C1 (racemic) [Example 313]
Tetranychus urticae; application rate of 500 g/ha
  efficacy: 90%
[1]
  logP[a]: 1.83
[2]
  logP[b]: 1.83

## CCc1nn(-c2cc(SCC(F)(F)F)c(C)cc2F)c(=O)o1 [Example 455]
Tetranychus urticae; application rate of 500 g/ha
  efficacy: 100%
[1]
  logP[a]: 3.53
[2]
  logP[b]: 3.46

## Cc1cc(F)c(-n2nc(OCC(C)(C)C)n(C3CC3)c2=O)cc1SCC(F)(F)F [Example 386]
Tetranychus urticae; application rate of 500 g/ha
  efficacy: 100%
[1]
  logP[a]: 4.77
[2]
  logP[b]: 4.71

## Cc1cc(F)c(-n2nc(Oc3ccccc3)n(C)c2=O)cc1[S+]([O-])CC(F)(F)F (centres unmarked) [Example 159]
Tetranychus urticae; application rate of 500 g/ha
  efficacy: 100%
[1]
  logP[a]: 2.70
[2]
  logP[b]: 2.65

## COC1=CC(=O)N(c2cc([S+]([O-])CC(F)(F)F)c(C)cc2Cl)C1 (centres unmarked) [Example 318]
Tetranychus urticae; application rate of 500 g/ha
  efficacy: 90%
[1]
  logP[a]: 1.99
[2]
  logP[b]: 1.94

## Cc1cc(F)c(-n2nc(S(C)(=O)=O)n(C)c2=O)cc1SCC(F)(F)F [Example 420, 2-{2-Fluoro-4-methyl-5-[(2,2,2-trifluoroethyl)sulphanyl]phenyl}-4-methyl-5-(methylsulphonyl)-2,4-dihydro-3H-1,2,4-triazol-3-one]
Tetranychus urticae; application rate of 500 g/ha
  pest or weed control at 500 g/ha: 90%
[1]; [3]
  chromatographic logP: 2.7
[1]; [4]
  chromatographic logP: 2.7
[2]
  chromatographic logP: 2.77

## CC(C)(C)COc1nn(-c2cc([S+]([O-])CC(F)(F)F)c(Cl)cc2F)c(=O)n1C1CC1 (centres unmarked) [Example 402]
Tetranychus urticae; application rate of 500 g/ha
  efficacy: 90%
[1]
  logP[a]: 4.13
[2]
  logP[b]: 3.98

## COCc1nn(-c2cc(SCC(F)(F)F)c(C)cc2F)c(=O)n1N [Example 198]
Tetranychus urticae; application rate of 500 g/ha
  efficacy: 100%
[1]
  logP[a]: 2.28
[2]
  logP[b]: 2.22

## C=CCSc1nn(-c2cc(SCC(F)(F)F)c(C)cc2F)c(=O)n1C1CC1 [Example 425]
Tetranychus urticae; application rate of 500 g/ha
  efficacy: 100%
[1]
  logP[a]: 4.10
[2]
  logP[b]: 4.01

## Cc1cc(F)c(N2C(=O)C(Cl)=C(Cl)C2=O)cc1SCC(F)(F)F [Example 338]
Tetranychus urticae; application rate of 500 g/ha
  efficacy: 90%
[1]
  logP[a]: 3.99
[2]
  logP[b]: 4.00

## Cc1cc(F)c(-n2nc(SC(C)C)n(C3CC3)c2=O)cc1SCC(F)(F)F [Example 268]
Tetranychus urticae; application rate of 500 g/ha
  efficacy: 100%
[1]
  logP[a]: 4.37
[2]
  logP[b]: 4.28

## Cc1cc(F)c(-n2nc(SC(C)C)n(C)c2=O)cc1SCC(F)(F)F [Example 276]
Tetranychus urticae; application rate of 500 g/ha
  efficacy: 100%
[1]
  logP[a]: 3.86
[2]
  logP[b]: 3.80

## CCCSc1nn(-c2cc(SCC(F)(F)F)c(C)cc2F)c(=O)n1C1CC1 [Example 265]
Tetranychus urticae; application rate of 500 g/ha
  efficacy: 100%
[1]
  logP[a]: 4.41
[2]
  logP[b]: 4.32

## CCCSc1nn(-c2cc(SCC(F)(F)F)c(C)cc2F)c(=O)n1CC [Example 288]
Tetranychus urticae; application rate of 500 g/ha
  efficacy: 100%
[1]
  logP[a]: 3.18
[2]
  logP[b]: 3.13

## COC1=CC(=O)N(c2cc(SCC(F)(F)F)c(C)cc2C)C1 [Example 312]
Tetranychus urticae; application rate of 500 g/ha
  efficacy: 90%
[1]
  logP[a]: 2.88
[2]
  logP[b]: 2.81

## Cc1cc(F)c(-n2nc(C3CC3)n(N)c2=O)cc1SCC(F)(F)F [Example 196]
Tetranychus urticae; application rate of 500 g/ha
  efficacy: 100%
[1]
  logP[a]: 2.67
[2]
  logP[b]: 2.61

## Cc1cc(F)c(-n2nc(C)n(N(C)C)c2=O)cc1[S+]([O-])CC(F)(F)F (centres unmarked) [Example 210]
Tetranychus urticae; application rate of 500 g/ha
  efficacy: 100%
[1]
  logP[a]: 2.09
[2]
  logP[b]: 2.09

## Cc1cc(F)c(-n2nc(C3CCCCC3)n(C3CC3)c2=S)cc1SCC(F)(F)F [Example 496]
Tetranychus urticae; application rate of 500 g/ha
  efficacy: 90%
[1]
  logP[a]: 5.00
[2]
  logP[b]: 4.88

## CCCSc1nn(-c2cc(SCC(F)(F)F)c(C)cc2F)c(=O)n1C [Example 277]
Tetranychus urticae; application rate of 500 g/ha
  efficacy: 100%
[1]
  logP[a]: 3.90
[2]
  logP[b]: 3.86

## C=CCn1c(OC)nn(-c2cc(SCC(F)(F)F)c(C)cc2F)c1=O [Example 182]
Tetranychus urticae; application rate of 500 g/ha
  efficacy: 100%
[1]
  logP[a]: 3.30
[2]
  logP[b]: 3.24

## CC1=C(C)C(=O)N(c2cc([S+]([O-])CC(F)(F)F)c(C)cc2F)C1=O (centres unmarked) [Example 341]
Tetranychus urticae; application rate of 500 g/ha
  efficacy: 90%
[1]
  logP[a]: 2.52
[2]
  logP[b]: 2.49

## Cc1cc(C)c(-n2nc(OCC(F)(F)F)n(C3CC3)c2=O)cc1SCC(F)(F)F [Example 377]
Tetranychus urticae; application rate of 500 g/ha
  efficacy: 100%
[1]
  logP[a]: 4.01
[2]
  logP[b]: 3.92

## Cc1cc(F)c(-n2nc(C)n(N(C)C)c2=O)cc1SCC(F)(F)F [Example 201]
Tetranychus urticae; application rate of 500 g/ha
  efficacy: 100%
[1]
  logP[a]: 3.17
[2]
  logP[b]: 3.14

## CNn1c(C2CC2)nn(-c2cc([S+]([O-])CC(F)(F)F)c(C)cc2F)c1=O (centres unmarked) [Example 208]
Tetranychus urticae; application rate of 500 g/ha
  efficacy: 100%
[1]
  logP[a]: 2.09
[2]
  logP[b]: 2.05

## CCCOc1nn(-c2cc(SCC(F)(F)F)c(C)cc2F)c(=O)n1CC [Example 400]
Tetranychus urticae; application rate of 500 g/ha
  efficacy: 100%
[1]
  logP[a]: 4.06
[2]
  logP[b]: 3.96

## Cc1cc(F)c(-n2nc(Br)n(C(C)(C)C)c2=O)cc1SCC(F)(F)F [Example 438]
Tetranychus urticae; application rate of 500 g/ha
  efficacy: 100%
[1]
  logP[a]: 4.24
[2]
  logP[b]: 4.17

## Cc1cc(F)c(-n2nc(SC(F)(F)F)n(C3CC3)c2=O)cc1SCC(F)(F)F [Example 263]
Tetranychus urticae; application rate of 100 g/ha
  efficacy: 100%
[1]
  logP[a]: 4.08
[2]
  logP[b]: 4.01

## Cc1cc(C)c([S+]([O-])CC(F)(F)F)cc1-n1nnn(C(C)C)c1=O (racemic) [Example 300]
Tetranychus urticae; application rate of 500 g/ha
  efficacy: 100%
[1]
  logP[a]: 2.63
[2]
  logP[b]: 2.61

## Cc1cc(F)c(-n2ncn(C(C)(C)C)c2=O)cc1SCC(F)(F)F [Example 367]
Tetranychus urticae; application rate of 500 g/ha
  efficacy: 100%
[1]
  logP[a]: 3.27
[2]
  logP[b]: 3.23

## COc1nn(-c2cc(SCC(F)(F)F)c(Br)cc2F)c(=O)n1C1CC1 [Example 173]
Tetranychus urticae; application rate of 500 g/ha
  efficacy: 100%
[1]
  logP[a]: 3.43
[2]
  logP[b]: 3.36

## Cc1cc(F)c(-n2nc(SC(F)(F)F)n(C)c2=O)cc1[S+]([O-])CC(F)(F)F (racemic) [Example 284]
Tetranychus urticae; application rate of 500 g/ha
  efficacy: 100%
[1]
  logP[a]: 2.65
[2]
  logP[b]: 2.60
